Measurements taken from ChEMBL document CHEMBL1201862, “PubChem BioAssay data set” (2004).
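Exposure lasted 48 hours, with cells grown in 96-well plates and compounds tested at five concentrations. At the GI50, growth is halved.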 Active and inactive are the calls of the source. Rule as the data show it: active = GI50 up to about 1.1 µM and inactive = higher.

Columns and labels:
Experiment in all cases: NCI anticancer screen, dose series, 48 h
RXF 393 = system: RXF 393
MDA-MB-231 = system: MDA-MB-231
UACC-257 = system: UACC-257
COLO 205 = system: COLO 205
SR = system: SR
RPMI-8226 = system: RPMI-8226
NCI-H23 = system: NCI-H23
HOP-62 = system: HOP-62
A549 = system: A549
SF-295 = system: SF-295
MOLT-4 = system: MOLT-4
DU-145 = system: DU-145
SNB-19 = system: SNB-19
M14 = system: M14
CAKI-1 = system: CAKI-1
SN12C = system: SN12C
MCF7 = system: MCF7
OVCAR-5 = system: OVCAR-5
SW-620 = system: SW-620
K562 = system: K562
HCT-116 = system: HCT-116
Hs-578T = system: Hs-578T
MDA-N = system: MDA-N
NCI/ADR-RES = system: NCI/ADR-RES
SF-539 = system: SF-539
ACHN = system: ACHN
KM12 = system: KM12
HCC 2998 = system: HCC 2998
NCI-H226 = system: NCI-H226
HOP-92 = system: HOP-92
SK-MEL-28 = system: SK-MEL-28
HL-60 = system: HL-60
TK-10 = system: TK-10
IGROV-1 = system: IGROV-1
UACC-62 = system: UACC-62
LOX IMVI = system: LOX IMVI
HT-29 = system: HT-29
SK-OV-3 = system: SK-OV-3
Malme-3M = system: Malme-3M
UO-31 = system: UO-31
NCI-H522 = system: NCI-H522
EKVX = system: EKVX
PC-3 = system: PC-3
SF-268 = system: SF-268
CCRF-CEM = system: CCRF-CEM
MDA-MB-435 = system: MDA-MB-435
OVCAR-3 = system: OVCAR-3
OVCAR-8 = system: OVCAR-8
SNB-75 = system: SNB-75
786-0 = system: 786-0
SK-MEL-5 = system: SK-MEL-5
T47D = system: T47D
SK-MEL-2 = system: SK-MEL-2
U-251 = system: U-251
NCI-H460 = system: NCI-H460
OVCAR-4 = system: OVCAR-4

Measured: GI50

CCC(=O)ONC(=O)Cn1ccc([N+](=O)[O-])n1
inactive: RXF 393 > 100 µM | MDA-MB-231 > 100 µM | UACC-257 > 100 µM | COLO 205 > 100 µM | SR > 100 µM | RPMI-8226 > 100 µM | NCI-H23 > 100 µM | HOP-62 > 100 µM | A549 > 100 µM | SF-295 > 100 µM | MOLT-4 > 100 µM | DU-145 > 100 µM | SNB-19 > 100 µM | M14 > 100 µM | CAKI-1 > 100 µM | SN12C > 100 µM | MCF7 > 100 µM | OVCAR-5 > 100 µM | SW-620 > 100 µM | K562 > 100 µM | HCT-116 > 100 µM | Hs-578T > 100 µM | MDA-N > 100 µM | NCI/ADR-RES > 100 µM | SF-539 > 100 µM | ACHN > 100 µM | KM12 > 100 µM | HCC 2998 > 100 µM | NCI-H226 > 100 µM | HOP-92 > 100 µM | SK-MEL-28 > 100 µM | HL-60 > 100 µM | TK-10 > 100 µM | IGROV-1 > 100 µM | UACC-62 > 100 µM | LOX IMVI > 100 µM | HT-29 > 100 µM | SK-OV-3 > 100 µM | Malme-3M > 100 µM | UO-31 > 100 µM | NCI-H522 > 100 µM | EKVX > 100 µM | PC-3 > 100 µM | SF-268 > 100 µM | CCRF-CEM > 100 µM | MDA-MB-435 > 100 µM | OVCAR-3 > 100 µM | OVCAR-8 > 100 µM | SNB-75 > 100 µM | 786-0 > 100 µM | SK-MEL-5 > 100 µM

COc1ccc(-c2coc3cc(O)cc(O)c3c2=O)cc1 [BIOCHANIN]
inactive: RXF 393 > 10 µM | COLO 205 > 10 µM | SR > 10 µM | RPMI-8226 > 10 µM | NCI-H23 > 10 µM | HOP-62 > 10 µM | A549 > 10 µM | MOLT-4 > 10 µM | M14 > 10 µM | CAKI-1 > 10 µM | T47D > 10 µM | MCF7 > 10 µM | SK-MEL-2 > 10 µM | U-251 > 10 µM | OVCAR-5 > 10 µM | SW-620 > 10 µM | K562 > 10 µM | NCI/ADR-RES > 10 µM | ACHN > 10 µM | SK-MEL-28 > 10 µM | HL-60 > 10 µM | NCI-H460 > 10 µM | IGROV-1 > 10 µM | UACC-62 > 10 µM | SK-OV-3 > 10 µM | Malme-3M > 10 µM | OVCAR-4 > 10 µM | SF-268 > 10 µM | CCRF-CEM > 10 µM | MDA-MB-435 > 10 µM | SNB-75 > 10 µM | 786-0 > 10 µM | SK-MEL-5 > 10 µM
